The series in a line: gradient 5% acetonitrile 3 min, to 50% in 2 min, to 85% in 15 min, held 3 min, 100 µL/min. The note with it: column: Zorbax Extend-C18 2.1 x 50 mm; eluents: water / acetonitrile, 0.1% formic acid. In outline:
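Retention time was recorded from adduct peaks, which were picked computationally and each inspected manually. Pure standards ran in mixtures of ~100 molecules on HPLC coupled to a quadrupole time-of-flight mass spectrometer, in positive and negative ionization mode, through a Zorbax Extend-C18 column (2.1 × 50 mm, 1.8 μm) at 100 μL/min. Eluents were water and acetonitrile, each with 0.1% formic acid.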
As for `COc1ccc(NC(=O)N(C)CCc2noc(COc3ccccc3)n2)cc1OC`, the RP-LC retention time worked out at 788 s.
`COCCC(=O)NCCC1CCN(C(=O)Nc2ccc(F)cc2F)CC1` returned an RP-LC retention time of 643 s.
`Cc1ccc2oc(N3CCN(C(=O)c4ccc(-c5noc(C(C)C)n5)cc4)CC3)nc2n1` gave an RP-LC retention time of 685 s.
`COc1cccc(C2(C(N)=O)CC2)c1` registered an RP-LC retention time of 688 s.
Under `O=C(CCNc1c(-c2cccc(F)c2)nc2cnccn12)NCc1ccc(F)c(Cl)c1` stands 806 s; under `CN1CCCn2cc(S(=O)(=O)Nc3ccc(Cl)cc3)cc2C1=O`, 714 s; under `Cn1cnc(S(=O)(=O)N2CCC(C(=O)NCc3ccc(Cl)cc3)CC2)c1`, 702 s.
Next, `O=C(Nc1ccc2c(c1)OCCO2)c1coc(NC(=O)C2CC2)n1`: 643 s; `COCCNC(=O)C1CCN(C(=O)c2cc3ccsc3n2Cc2cccc(OC)c2)CC1`: 770 s.
Next, `CS(=O)(=O)NCC(c1ccsc1)N1CCc2ccccc2C1` (centres undefined): 563 s; `CC1Cc2cc(-c3cc(CC(=O)N4CCN(c5ccccc5F)CC4)no3)ccc2O1` (centres undefined): 975 s; `Cc1nc(-c2cccc(-c3noc(-c4ccc5cc[nH]c5c4)n3)c2)cs1`: 1230 s.
In turn, `CNC(=O)N1CCCC(c2cccc(C(=O)NCc3cc(OC)ccc3OC)c2)C1` (centres undefined) yielded an RP-LC retention time of 766 s.
`CN(CCc1noc(-c2ccc(C(=O)N3CCCC3)cc2)n1)C(=O)c1ccccc1Br` came in with an RP-LC retention time of 736 s.
For the molecule `Cc1noc(-c2ccc(OC3CN(C(=O)Cc4ccccc4)C3)cc2)n1`, the RP-LC retention time was 924 s.
On to `Cc1noc([C@@H]2CN(C(=O)c3ccoc3C)C[C@H]2C(N)=O)n1`, for which the RP-LC retention time amounted to 599 s.
On to `CCCc1noc(-c2ccnc(-n3ncc(C(=O)N4CCSCC4)c3C)c2)n1`, for which the RP-LC retention time was 974 s.
With `Cc1ccc2nc(Cl)c3cc(C(=O)N4CCN(c5ccccn5)CC4)sc3c2c1`, the RP-LC retention time was determined as 719 s.
With `COc1ccc(NC(=O)C2CCN(S(=O)(=O)c3cc(-c4noc(C)n4)cs3)CC2)cc1`, the RP-LC retention time came to 871 s.
`COc1ccc(NC(=O)c2ccc3nc(-c4ccccc4)cn3c2)c(OC)c1` yielded an RP-LC retention time of 722 s.
Under `Cc1ccn2c(Nc3ccccc3C)c(-c3c(F)cccc3Cl)nc2c1` stands 766 s; under `O=C(C1CCCC1)N1CCCCC1c1nc(C2CC2)n[nH]1` (centres undefined), 676 s.
`CCc1nc(-c2csc(S(=O)(=O)N3CCCC(C(=O)Nc4ccc(C)c(F)c4)C3)c2)no1` (centres undefined) came in with an RP-LC retention time of 1110 s.
Molecule `COc1ccc(-c2nnc(-c3ccc(Cl)c(S(=O)(=O)N4CCOCC4)c3)o2)cc1OC` showed an RP-LC retention time of 884 s.
Take `CCOC(=O)c1ccccc1NC(=O)Cn1cccc(-c2nc(-c3ccc(Cl)cc3)no2)c1=O`: the RP-LC retention time was found to be 1160 s.
Consider `Cc1ccc(NC(=O)N2CCCC2c2cc(C)no2)cc1` (centres undefined), for which the RP-LC retention time turned out to be 782 s.
`Cc1cc(=O)n(CC(=O)Nc2cccc(C)c2C)c(N)n1` had an RP-LC retention time of 600 s.
Turning to `O=C(NCc1ccc(F)cc1)N1CCN(CCn2c(C(F)(F)F)nc3cccnc32)CC1`, the RP-LC retention time turned out to be 639 s.
On to `CCOC(=O)c1ccc(NC(=O)C2CCN(c3c(C(=O)N(CC)CC)cnc4snc(C)c34)CC2)cc1`, for which the RP-LC retention time worked out at 967 s.
`COc1nccnc1NC1CCN(C(=O)c2ccco2)CC1`: the RP-LC retention time stood at 690 s.
Molecule `CC[C@@H](CO)NC(=O)[C@@H]1C=C2c3cccc4[nH]cc(c34)C[C@H]2N(C)C1` came in with an RP-LC retention time of 616 s.
In the case of `COc1ccc(OCc2noc(CNC(=O)Cn3cnc4ccccc43)n2)cc1`, the RP-LC retention time was 592 s.
For the molecule `COc1ccc(NC(=O)c2ccccc2NC(=O)C2CCN(C(=O)C(C)(C)C)CC2)cc1`, the RP-LC retention time worked out at 868 s.
In the case of `CCc1ccc(C(=O)N2CCC3(C2)C(=O)Nc2ccc(OC)cc23)cc1` (centres undefined), the RP-LC retention time came to 786 s.
`O=C(Cn1c(=O)c2cccn2c2ccc(F)cc21)NC1CC1` came in with an RP-LC retention time of 685 s.
Turning to `COc1ccccc1N1CCN(S(=O)(=O)c2cc(-c3cc(C(F)(F)F)on3)cs2)CC1`, the RP-LC retention time stood at 1200 s.
The molecule `CCOc1ccccc1NC(=O)NCC(c1cccnc1)c1c[nH]c2ccccc12` (centres undefined) came in with an RP-LC retention time of 684 s.
In turn, `CCCNC(=O)CCc1c(-c2ccc(F)cc2)nc2ccccn12` displayed an RP-LC retention time of 608 s.
The molecule `CC(C)CCNC(=O)Cn1ccn2nc(-c3ccc(F)cc3)c(CO)c2c1=O` yielded an RP-LC retention time of 804 s.
Under `CCn1cc(-c2nc(-c3ccc(OC)cc3OC)no2)c(=O)c2cc(F)ccc21` stands 830 s; under `Cc1csc(-c2cc(S(=O)(=O)NC3CC3)cn2CC(=O)N2CCCCC2)n1`, 841 s.
In turn, `CN(C(=O)Cn1nc(Cc2cccnc2)c2ccccc2c1=O)C1CCCCC1` displayed an RP-LC retention time of 640 s.
The molecule `Cc1cc2c(cc1S(=O)(=O)N1CCCC1C(=O)Nc1ccc3c(c1)OCO3)OCC(=O)N2` (centres undefined) displayed an RP-LC retention time of 720 s.
For `COc1ccccc1N1CCN(S(=O)(=O)c2cc(-c3csc(C)n3)ccc2C)CC1`, the RP-LC retention time came to 1160 s.
Regarding `COc1ccc(-c2cc3nn(CC(=O)Nc4ccc(Cl)cc4)c(=O)n3c(C)n2)cc1`, the RP-LC retention time was 974 s.
As to `CCCCNC(=O)c1cn(C)nc1S(=O)(=O)N1CCC(C)CC1`, the RP-LC retention time was 938 s.
Take `CCN(C(=O)Cc1c(C(=O)O)c(C)cn1C)c1ccccc1`: the RP-LC retention time amounted to 722 s.
For the molecule `Cc1cc(NCC(O)c2ccc([N+](=O)[O-])cc2)nc(-n2nc(C)cc2C)n1` (centres undefined), the RP-LC retention time was 592 s.
Turning to `CCCc1nnsc1C(=O)NCC1CCN(C(=O)Oc2ccccc2)CC1`, the RP-LC retention time came out at 863 s.
In the case of `CN(C)C[C@@H]1CN(c2ncccn2)C[C@H]1NS(=O)(=O)c1ccc(C#N)cc1`, the RP-LC retention time came to 589 s.
On to `Cc1cc(C)cc(NC(=O)Cn2c(=O)c(CCC(=O)NC3CCCC3)nc3ccccc32)c1`, for which the RP-LC retention time amounted to 916 s.
Next, `CCN(CC)C(=O)N1CCC2(CC1)CC(N1CCN(c3ccccc3)CC1)CCO2` (centres undefined): 582 s; `CCNC(=O)NC1CCN(c2nc3cccnc3n(Cc3ccccc3)c2=O)CC1`: 877 s.
For `Cn1c(C(=O)NC2CCCCCC2)cc2sc(Cl)cc21`, the RP-LC retention time worked out at 1200 s.
In turn, `Cc1cccc(NC(=O)N2CCc3nc(-c4ccc(Cl)cc4)ncc3C2)c1` showed an RP-LC retention time of 1080 s.
`Cc1cc(N2CCN(C(=O)c3ccc(N(C)C)cc3)CC2)nc2nncn12` registered an RP-LC retention time of 575 s.
Next, `O=C(C1CCN(c2ccc(Sc3ccc(Cl)cc3)nn2)CC1)N1CCN(c2ccccn2)CC1`: 644 s.
Next, `O=C1[C@H]2CN(Cc3cccc(F)c3)C[C@H]2C(=O)N1CCc1ccccc1`: 804 s; `NS(=O)(=O)c1cccnc1Nc1cc(F)cc(F)c1`: 858 s.
As for `Cc1nn(C(C)C)c(C)c1S(=O)(=O)N1CCN(C(=O)c2ccsc2)CC1`, the RP-LC retention time amounted to 775 s.
In turn, `Cc1ccc(-c2ncc(C(=O)O)c(-c3ccncc3)n2)cc1` returned an RP-LC retention time of 693 s.
Under `Cn1c(=O)c(N2CCN(C(=O)c3ccc(F)cc3Cl)CC2)nc2ccncc21` stands 616 s; under `O=C(Cc1cccs1)N1CCN(Cc2nc(-c3ccc(Cl)cc3)cs2)CC1`, 754 s.
Next, `CC(C)NC(=O)c1ccc(OCC2CCN(C(=O)c3cc(F)ccc3Cl)CC2)cc1`: 891 s; `Cc1ccc(CNC(=O)C2(C)Cn3nc(C(=O)NCCC(C)C)cc3C(=O)N2C)cc1` (centres undefined): 754 s.
For `COc1ccc(-c2nc3cc(C)ccn3c2NC(=O)Cc2cccc3ccccc23)cc1`, the RP-LC retention time came out at 726 s.
Under `O=C1CCN(C(=O)c2cccs2)CCOCCN1` stands 585 s.
Consider `CCOc1ccccc1-c1noc(CN2N=NC3C(=O)N(c4cc(OC)cc(OC)c4)C(=O)C32)n1` (centres undefined), for which the RP-LC retention time stood at 962 s.
The molecule `CCOc1ncccc1CNC(=O)CNC(C)=O` displayed an RP-LC retention time of 568 s.
`CCNS(=O)(=O)c1c(C)[nH]c(=O)[nH]c1=O`: the RP-LC retention time stood at 550 s.
In turn, `Cc1oc2c(c1C(=O)N1CCN(c3cccc(C(F)(F)F)c3)CC1)C1=NCCN1C=N2` displayed an RP-LC retention time of 692 s.
Under `CCOc1ccc(CNC(=O)COc2nc(CC)nc3oc(C)c(C)c23)cc1` stands 993 s; under `CN(C)C(=O)C1CCN(c2nc3ccc(-c4ccc(F)cc4)nc3s2)CC1`, 912 s.
Next, `CCc1ccc(NC(=O)N2C[C@@H](F)C[C@H]2C(=O)N2CCCCC2)cc1`: 728 s; `CC(C)(C)c1ccc(C(=O)Nc2nnc(-c3ccccn3)o2)cc1`: 751 s; `O=C1CN(Cc2ccccc2)[C@H]2CS(=O)(=O)C[C@H]2N1c1ccc(Br)cc1`: 845 s.
With `Cc1ccc(Sc2nccnc2N2CCCC(C(=O)NC3CCCCCC3)C2)cc1` (centres undefined), the RP-LC retention time came out at 1250 s.
In turn, `Cc1cccc(-c2nn3c(N(C)C)cc(C)nc3c2C)c1` had an RP-LC retention time of 716 s.
Under `CN1C(=O)C2(CCN(C(=O)c3ccccc3F)C2)c2ccccc21` (centres undefined) stands 750 s.
